Data from patent US12600757B2, “Peptides inhibiting gamma-c-cytokine activity and methods of use” (Bioniz, LLC, priority 2017, dated 2026).
Values belong to the compound of their own block, whether it stands above or below them. Bridge positions count the residues as written; N and C are the ends. Square brackets hold non-standard residues; d marks the D form. Ends that are not written are not given here. Peptide text beside a SMILES is read from it. R5 = C=CCCC[C@@](C)(N)C(=O)O; S5 = C=CCCC[C@](C)(N)C(=O)O

Legend:
[1] = Time-course protease stability in simulated intestinal fluid (RP-HPLC); conditions: simulated intestinal fluid (USP), 37° C., over 60 minutes
Description: To evaluate the gastric stability of the custom peptide derivatives containing one or more intra-peptide hydrocarbon linker elements of the present embodiments a time-course protease stability measurement of unmodified SEQ ID NO: 3 in comparison with a representative custom peptide derivative of SEQ ID NO: 3 containing one hydrocarbon linker element (SEQ ID NO: 39), and another representative custom peptide derivative of SEQ ID NO: 3 containing two hydrocarbon linker elements and certain amino acid positions in the (D) stereochemical configuration (SEQ ID NO: 57) was carried out in simulated intestinal fluid over 60 minutes. […] Simulated intestinal fluid was made according to USP specifications (Test Solutions, United States Pharmacopeia 36). 50 μL of 10 mg/mL peptide was mixed with 450 μL pre-warmed (37° C.) simulated intestinal fluid, and aliquots of the reaction mixture were removed at prescribed time intervals over a time-period of 60 minutes and stopped with 0.1 M HCl. Peptide stability was measured by reversed phase HPLC on a Phenomenex Aeris Peptide column (4.6×250 mm) with settings: 3.6 μm particle size, non-porous; 5.0 μL injection, 0.5 mL/min; mobile phase A: 25% Acetonitrile with 0.1% TFA; mobile phase B: 100% Acetonitrile with 0.1% TFA. The multi-step buffer gradient goes from 100% A to 100% B over 26 minutes. […]

[2] = tested on: T-cells in HAM/TSP culture; test: Ex vivo spontaneous T-cell proliferation assay using HAM/TSP patient PBMC; assay type: cell-based, human; conditions: HAM/TSP peripheral blood ex vivo culture
Procedure: Proliferation assays were performed on HAM/TSP patient blood samples with and without the addition of BNZ-γ. These assays evaluated the ability of BNZ-γ to block the function of cytokines, such as IL-2 and IL-15, present in the ex vivo HAM/TSP patient blood culture and prevent spontaneous T-cell proliferation in these samples.
In an ex vivo spontaneous T-cell proliferation assay, PBMC from HAM/TSP patient was cultured at 1×10(6) cells per well of a 96 well plate in RPMI-10% FCS. Increasing concentrations of BNZ-γ peptide were added to each well. As a control, an irrelevant peptide was used in similar fashion. The cells were incubated in a 37° C. CO2 incubator for 3, 4, and 6 days. The amount of 1 uCi of ^3H-thymidine was added to the cells. After an additional 6 hour incubation, cells were harvested their proliferation rate was measured. As indicated in FIG. 5A-FIG. 5D, BNZ-γ peptide inhibits the spontaneous proliferation of T-cells in HAM/TSP culture at a concentration of about 1 ug/ml.
Other immunological markers were additionally measured in this assay. The percentage of the viral specific CD8 cells was measured during the ex vivo culture using viral protein tetramers. The population of CD4+CD25+ cells, a marker of T-cell activation, as well as Ki67 staining, a marker of T-cell proliferation, was monitored in a flow cytometry assay.

IL-9 = test: NK92 cell proliferation assay (WST-1), IL-9 stimulated; assay type: cell-based, human; conditions: NK92 cells, peptide 2.5 μM (70% purity), 2 days
Description: (§1) For each of the six γc-cytokines, indicator cell lines: NK92, a human NK cell line NK92 available by American Type Culture Collection (ATCC) (catalog #CRL-2407), CTLL-2, a murine CD8 T cells line available from ATCC, and PT-18, a murine mast cell line and its subclone PT-18β, is transfected with human IL-2Rβ gene to make the cells responsive to IL-2 and IL-15 (Tagaya et al., 1996, EMBO J. 15:4928-39), and is used to quantitatively determine the γc-cytokine's growth-promoting activity (See Current protocols in Immunology from Wiley and Sons for a methodological reference).
(§2) Once the appropriate doses of the cytokine that yield the 50-70% and 95% maximum response from the indicator cell line is determined, various concentrations (ranging from 1 μM to 10 μM) of the purified or synthesized custom derivative peptide is added to each well containing the cytokine and indicator cells. The reduction in light absorbance at 450 nm is used as an indicator of inhibition of cytokine-stimulated cellular proliferation.
(§3) The human NK cell line NK92 was used to determine the γc-cytokine inhibitory specificity of SEQ ID NO: 3. In this assay the cells were cultured with 0.5 nM of recombinant IL-2 in RPMI 10% fetal Calf Serum. […] The growth-responses of the cells were determined 2 days after the introduction of SEQ ID NO: 3 and the cytokine using the WST-1 assay. […]

IL-2 = test: NK92 cell proliferation assay (WST-1), IL-2 stimulated; assay type: cell-based, human; conditions: NK92 cells, 2 days
Description: as §1, §2
as §3, with “for a dose response” for “to determine the γc-cytokine inhibitory specificity”, “3 against IL-2, IL-15, and IL-21. Cells” for “3. In this assay the cells”

[3] = tested on: IL-21 mediated phosphorylation of STAT-3; test: IL-21 mediated phosphorylation of STAT3 in NK92 cells (immunoblot); assay type: cell-based, human; conditions: anti-phospho-STAT3 immunoblot
Description: (§4) Similar to the IL-15 induced tyrosine phosphorylation of STAT5 via Jak3, it is well known in the art that Jak-STAT signaling mediated via IL-21 receptor binding preferentially induces Jak-mediated tyrosine phosphorylation of STAT3 (Habib et al. 2003 J Allergy Clin Immunol. 112:1033-45). In accordance with these published data, the ability of SEQ ID NO: 3 to inhibit the tyrosine phosphorylation of the STAT5 molecule by IL-2 or IL-15 in CTLL-2 cells, and the ability of SEQ ID NO: 3 to inhibit the tyrosine phosphorylation of the STAT3 molecule by IL-21 in NK92 cells was examined (results shown in FIG. 4B).
(§5) CTLL-2 cells were stimulated by IL-2 or IL-15 in the presence or absence of SEQ ID NO: 3. CTLL-2 cells were also stimulated by IL-2 or IL-15 in the presence of anti-IL-2 antibody (R & D Systems, Catalog #MAB202, Minneapolis, MN) or anti-IL-15 antibody (R & D Systems, Catalog #MAB247, Minneapolis, MN) as positive controls. NK92 cells were stimulated by IL-21 in the presence or absence of SEQ ID NO: 3. NK92 cells were also stimulated by IL-21 in the presence of anti-IL-21 antibody (Mabtech, Catalog #3540-1-250, Cincinnati, OH) as a positive control. Cytoplasmic proteins were extracted from the cells according to a conventional method as described in Tagaya et al. 1996 EMBO J. 15:4928-39. […]

[4] = tested on: IL-15 mediated phosphorylation of STAT-5; test: IL-15 mediated phosphorylation of STAT5 in CTLL-2 cells (immunoblot); assay type: cell-based, murine; conditions: anti-phospho-STAT5 immunoblot
Description: as §4, §5

IL-21 = test: NK92 cell proliferation assay (WST-1), IL-21 stimulated; assay type: cell-based, human; conditions: NK92 cells, 2 days
Description: as §1, §2
as §3, with “for a dose response” for “to determine the γc-cytokine inhibitory specificity”, “3 against IL-2, IL-15, and IL-21. Cells” for “3. In this assay the cells”

[5] = tested on: IL-2 mediated phosphorylation of STAT-5; test: IL-2 mediated phosphorylation of STAT5 in CTLL-2 cells (immunoblot); assay type: cell-based, murine; conditions: anti-phospho-STAT5 immunoblot
Description: as §4, §5

IL-15 = test: NK92 cell proliferation assay (WST-1), IL-15 stimulated; assay type: cell-based, human; conditions: NK92 cells, 2 days
Description: as §1, §2
as §3, with “for a dose response” for “to determine the γc-cytokine inhibitory specificity”, “3 against IL-2, IL-15, and IL-21. Cells” for “3. In this assay the cells”

IL-4 = test: NK92 cell proliferation assay (WST-1), IL-4 stimulated; assay type: cell-based, human; conditions: NK92 cells, peptide 2.5 μM (70% purity), 2 days
Description: as §1, §2, §3

[6] = tested on: IL-21 induction of IFNγ gene transcription; test: IL-21 induced IFNγ gene transcription in NK92 cells (qPCR); assay type: cell-based; conditions: peptide 10 minutes pre-treatment, human IL-21 1 ng/mL for 2 hours
Description: (§6) The cytokine interferon gamma (IFNγ) represents a useful marker for inflammation in multiple human immune-inflammatory disease states. Transcription of the IFNγ gene is inducible by IL-15, IL-21, the non-γc cytokine IL-12, and other select cytokines. The ability to block cytokine-induced IFNγ transcription therefore represents another useful approach to determine the biological activity of custom peptide derivatives.
(§7) NK92 cells were brought to a quiescent state by PBS washing and culturing in the absence of cytokine for 48 hours. Cells were treated with SEQ ID NO: […] for 10 minutes, and then stimulated with human IL-15, IL-21, or IL-12 at 1 ng/mL for 2 hours. A cytokine only treatment group, and another treatment group where the NK92 cells were left untreated by peptide, and not stimulated by cytokine were also included as control conditions. Following incubation with peptide and cytokine, cells were harvested, RNA was isolated for cDNA generation and used as template for qPCR analysis to quantify IFNγ transcripts.

[7] = tested on: IL-15 induction of IFNγ gene transcription; test: IL-15 induced IFNγ gene transcription in NK92 cells (qPCR); assay type: cell-based; conditions: peptide 10 minutes pre-treatment, human IL-15 1 ng/mL for 2 hours
Description: as §6, §7

[8] = tested on: IL-12 induction of IFNγ gene transcription; test: IL-12 induced IFNγ gene transcription in NK92 cells (qPCR); assay type: cell-based; conditions: peptide 10 minutes pre-treatment, human IL-12 1 ng/mL for 2 hours
Description: as §6, §7

[9] = peptide 0-0.1 μM (>99% purity), cytokine at 70% proliferation level

percentage of undigested peptide present in simulated intestinal fluid, compared to the unmodified peptide [1]: greatly enhanced
Compound: CC[C@H](C)[C@H](NC(=O)[C@]1(C)CCCC=CCCC[C@](C)(NC(=O)[C@@H](Cc2c[nH]cn2)NC(=O)[C@@]2(C)CCCC=CCCC[C@](C)(NC(=O)[C@@H](Cc3ccccc3)NC(=O)[C@@H](CCC(=O)O)NC(=O)[C@@H](CCCCN)NC(=O)[C@H]3CCCN3C(=O)[C@@H](CCCNC(=N)N)NC(=O)[C@@H](CCCNC(=N)N)NC(=O)[C@@H](CCCNC(=N)N)NC(=O)[C@H](N)CCCNC(=N)N)C(=O)N[C@@H](CCC(=O)O)C(=O)N[C@@H](CCCNC(=N)N)C(=O)N[C@@H](Cc3ccccc3)C(=O)N2)C(=O)N[C@@H](C(C)C)C(=O)N[C@@H](CCC(N)=O)C(=O)N[C@@H](CC(C)C)C(=O)N1)C(=O)N[C@H](Cc1c[nH]cn1)C(=O)N[C@H](CCC(N)=O)C(=O)N[C@H](CO)C(=O)N[C@H](CC(C)C)C(=O)N[C@H](CO)C(=O)O [SEQ ID NO: 57, {dR}-{dR}-{dR}-{dR}-{dP}-{dK}-{dE}-{dF}-{S5Ala1}-E-R-F-{R5Ala1}-{dH}-{S5Ala2}-V-Q-L-{S5Ala2}-I-{dH}-{dQ}-{dS}-{dL}-{dS}] (H-[dR][dR][dR][dR][dP][dK][dE][dF][S5]ERF[R5][dH][S5]VQL[S5]I[dH][dQ][dS][dL][dS]-OH; staple 9-13, 15-19; N-terminus and C-terminus assumed)

Compound: IKEFLQRFIHIVQSIINTS [BNZ-γ, I-K-E-F-L-Q-R-F-I-H-I-V-Q-S-I-I-N-T-S]
percent of live cells by Guava staining [2]: not impacted

Compound: PKEFLERFVHLVQMFIHQSLS (PKEFLERFVHLVQMFIHQSLS) [SEQ ID NO: 3, 21-mer composite peptide of γc-cytokine D-helix regions]
cellular proliferation stimulated by IL-9 (inhibitory specificity) (IL-9): not affected
cellular proliferation stimulated by IL-2 (dose response) (IL-2; peptide 0-10 μM (>99% purity), cytokine at 70% proliferation level): not affected
cellular proliferation stimulated by IL-2 (inhibitory specificity) (IL-2; peptide 2.5 μM (70% purity)): not affected
IL-21 mediated phosphorylation of STAT-3 [3]: inhibited
IL-15 mediated phosphorylation of STAT-5 [4]: inhibited
activity of IL-21 (dose response) (IL-21; [9]): potently inhibited
activity of IL-21 (inhibitory specificity) (IL-21; peptide 2.5 μM (70% purity)): significantly reduced
IL-2 mediated phosphorylation of STAT-5 [5]: but not IL-2 mediated phosphorylation of STAT-5
activity of IL-15 (dose response) (IL-15; [9]): potently inhibited
activity of IL-15 (inhibitory specificity) (IL-15; peptide 2.5 μM (70% purity)): significantly reduced
cellular proliferation stimulated by IL-4 (inhibitory specificity) (IL-4): not affected

Compound: {S5Ala1}-P-K-E-{S5Ala1}-L-E-R-F-V-H-L-V-Q-K-{S5Ala2}-I-H-Q-{S5Ala2}-L-S [SEQ ID NO: 83]
IL-21 induction of IFNγ gene transcription [6]: inhibition
IL-15 induction of IFNγ gene transcription [7]: inhibition
non-γc cytokine IL-12 induction of IFNγ gene transcription [8]: did not block
